Assays:
[1] = target: Rhodopsin kinase GRK1 (Homo sapiens) (UniProt Q15835); conditions: Compound concentration 1000.0 nM
[2] = system: ALK tyrosine kinase receptor (Homo sapiens), Q9UM73 [L1196M]; conditions: Compound concentration 1000.0 nM
[3] = target: Receptor-interacting serine/threonine-protein kinase 1 (Homo sapiens) (UniProt Q13546); conditions: Compound concentration 1000.0 nM
[4] = target: T1, Tyrosine-protein kinase TXK (Homo sapiens) (UniProt P42681); conditions: Compound concentration 1000.0 nM
T1 sequence (whole entry): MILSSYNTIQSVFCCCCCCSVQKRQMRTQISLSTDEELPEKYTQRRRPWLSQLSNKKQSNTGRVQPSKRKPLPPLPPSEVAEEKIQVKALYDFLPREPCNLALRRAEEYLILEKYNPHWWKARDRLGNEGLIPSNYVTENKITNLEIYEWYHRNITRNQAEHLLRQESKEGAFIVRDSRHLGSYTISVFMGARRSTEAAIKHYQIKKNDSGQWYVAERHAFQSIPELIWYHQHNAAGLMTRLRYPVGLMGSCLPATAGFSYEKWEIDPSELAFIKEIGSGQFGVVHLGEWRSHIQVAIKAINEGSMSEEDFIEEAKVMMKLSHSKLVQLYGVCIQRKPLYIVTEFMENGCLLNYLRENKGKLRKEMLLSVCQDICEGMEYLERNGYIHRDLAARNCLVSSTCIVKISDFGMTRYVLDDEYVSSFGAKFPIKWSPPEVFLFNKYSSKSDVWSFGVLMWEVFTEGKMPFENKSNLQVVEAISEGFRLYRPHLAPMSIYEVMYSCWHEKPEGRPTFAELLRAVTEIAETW

[5] = target: Myosin light chain kinase, smooth muscle (Homo sapiens) (UniProt Q15746); conditions: Compound concentration 1000.0 nM
[6] = system: Mast/stem cell growth factor receptor Kit (Homo sapiens), P10721 [D816V]; conditions: Compound concentration 1000.0 nM
Mast/stem cell growth factor receptor Kit (Homo sapiens), P10721 [D816V], sequence (P10721 whole entry D816V): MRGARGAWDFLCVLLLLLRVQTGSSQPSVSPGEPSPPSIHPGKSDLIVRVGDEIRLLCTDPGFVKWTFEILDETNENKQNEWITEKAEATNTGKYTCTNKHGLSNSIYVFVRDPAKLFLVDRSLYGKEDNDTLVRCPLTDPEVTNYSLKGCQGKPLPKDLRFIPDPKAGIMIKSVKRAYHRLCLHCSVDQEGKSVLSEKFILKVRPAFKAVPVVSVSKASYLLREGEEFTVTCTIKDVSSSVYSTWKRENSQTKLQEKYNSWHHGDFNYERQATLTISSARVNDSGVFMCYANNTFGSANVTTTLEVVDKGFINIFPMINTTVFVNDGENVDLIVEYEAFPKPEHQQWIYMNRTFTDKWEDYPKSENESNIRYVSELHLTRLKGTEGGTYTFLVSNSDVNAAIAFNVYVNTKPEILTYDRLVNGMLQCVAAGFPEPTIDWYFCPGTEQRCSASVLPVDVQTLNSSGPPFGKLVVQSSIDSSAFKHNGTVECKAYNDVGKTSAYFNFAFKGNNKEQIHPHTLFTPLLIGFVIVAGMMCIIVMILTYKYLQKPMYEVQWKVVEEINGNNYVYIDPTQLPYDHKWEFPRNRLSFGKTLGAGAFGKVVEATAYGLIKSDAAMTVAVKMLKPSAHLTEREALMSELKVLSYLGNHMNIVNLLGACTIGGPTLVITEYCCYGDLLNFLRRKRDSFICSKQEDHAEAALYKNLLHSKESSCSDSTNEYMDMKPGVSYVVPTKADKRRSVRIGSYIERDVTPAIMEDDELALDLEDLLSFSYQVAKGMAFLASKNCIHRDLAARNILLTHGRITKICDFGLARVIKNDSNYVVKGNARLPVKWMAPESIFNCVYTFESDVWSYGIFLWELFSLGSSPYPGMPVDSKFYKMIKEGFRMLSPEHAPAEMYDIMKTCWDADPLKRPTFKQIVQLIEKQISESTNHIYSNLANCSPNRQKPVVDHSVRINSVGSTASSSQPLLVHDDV

[7] = target: Calcium/calmodulin-dependent protein kinase type II subunit beta (Homo sapiens) (UniProt Q13554); conditions: Compound concentration 1000.0 nM
[8] = target: SRSF protein kinase 3 (Homo sapiens) (UniProt Q9UPE1); conditions: Compound concentration 1000.0 nM
SRSF protein kinase 3 (Homo sapiens), sequence (Q9UPE1 whole entry): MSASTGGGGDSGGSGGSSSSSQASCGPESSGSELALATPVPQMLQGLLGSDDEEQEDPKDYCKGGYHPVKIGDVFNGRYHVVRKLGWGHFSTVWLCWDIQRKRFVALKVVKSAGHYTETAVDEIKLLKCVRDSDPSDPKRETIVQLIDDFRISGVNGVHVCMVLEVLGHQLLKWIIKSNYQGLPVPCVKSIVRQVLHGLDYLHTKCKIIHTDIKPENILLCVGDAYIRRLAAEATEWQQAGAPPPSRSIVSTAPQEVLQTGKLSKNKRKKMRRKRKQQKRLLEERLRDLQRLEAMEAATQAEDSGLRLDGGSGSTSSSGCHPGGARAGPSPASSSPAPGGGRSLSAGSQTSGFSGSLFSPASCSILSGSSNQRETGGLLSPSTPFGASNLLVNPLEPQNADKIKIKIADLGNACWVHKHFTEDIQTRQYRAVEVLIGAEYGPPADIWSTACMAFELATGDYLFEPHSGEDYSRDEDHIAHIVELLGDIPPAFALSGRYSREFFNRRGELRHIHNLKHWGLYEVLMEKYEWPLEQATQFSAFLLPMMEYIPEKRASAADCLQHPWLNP

[9] = target: Homeodomain-interacting protein kinase 3 (Homo sapiens) (UniProt Q9H422); conditions: Compound concentration 1000.0 nM
[10] = target: T2, Dual specificity protein kinase TTK (Homo sapiens) (UniProt P33981); conditions: Compound concentration 1000.0 nM
T2 sequence (whole entry): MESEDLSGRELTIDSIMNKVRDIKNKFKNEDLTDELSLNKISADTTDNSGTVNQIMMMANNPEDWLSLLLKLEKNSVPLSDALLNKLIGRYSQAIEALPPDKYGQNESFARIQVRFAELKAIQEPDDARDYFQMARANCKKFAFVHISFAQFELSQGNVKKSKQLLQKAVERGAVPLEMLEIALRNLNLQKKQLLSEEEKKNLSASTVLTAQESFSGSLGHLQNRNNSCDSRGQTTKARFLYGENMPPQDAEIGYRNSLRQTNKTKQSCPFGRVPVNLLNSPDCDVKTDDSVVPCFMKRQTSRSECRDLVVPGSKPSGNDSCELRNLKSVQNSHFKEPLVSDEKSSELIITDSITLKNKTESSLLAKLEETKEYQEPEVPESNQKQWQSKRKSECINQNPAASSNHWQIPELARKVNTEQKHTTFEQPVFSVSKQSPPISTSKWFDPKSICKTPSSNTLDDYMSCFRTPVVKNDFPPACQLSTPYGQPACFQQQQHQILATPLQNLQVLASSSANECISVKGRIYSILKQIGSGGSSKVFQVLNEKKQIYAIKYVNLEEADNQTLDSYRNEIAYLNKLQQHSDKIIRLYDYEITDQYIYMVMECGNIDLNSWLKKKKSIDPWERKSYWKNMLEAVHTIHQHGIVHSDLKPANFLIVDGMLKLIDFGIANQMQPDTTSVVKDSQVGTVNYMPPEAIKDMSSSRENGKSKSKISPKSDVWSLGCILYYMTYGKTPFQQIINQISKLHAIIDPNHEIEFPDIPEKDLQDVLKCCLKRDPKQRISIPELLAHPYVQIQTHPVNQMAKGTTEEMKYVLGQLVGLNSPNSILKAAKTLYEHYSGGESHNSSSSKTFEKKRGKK

[11] = target: Citron Rho-interacting kinase (Homo sapiens) (UniProt O14578); conditions: Compound concentration 1000.0 nM
[12] = target: Mitogen-activated protein kinase kinase kinase 20 (Homo sapiens) (UniProt Q9NYL2); conditions: Compound concentration 1000.0 nM
Mitogen-activated protein kinase kinase kinase 20 (Homo sapiens), sequence (Q9NYL2 2-800 limits assumed): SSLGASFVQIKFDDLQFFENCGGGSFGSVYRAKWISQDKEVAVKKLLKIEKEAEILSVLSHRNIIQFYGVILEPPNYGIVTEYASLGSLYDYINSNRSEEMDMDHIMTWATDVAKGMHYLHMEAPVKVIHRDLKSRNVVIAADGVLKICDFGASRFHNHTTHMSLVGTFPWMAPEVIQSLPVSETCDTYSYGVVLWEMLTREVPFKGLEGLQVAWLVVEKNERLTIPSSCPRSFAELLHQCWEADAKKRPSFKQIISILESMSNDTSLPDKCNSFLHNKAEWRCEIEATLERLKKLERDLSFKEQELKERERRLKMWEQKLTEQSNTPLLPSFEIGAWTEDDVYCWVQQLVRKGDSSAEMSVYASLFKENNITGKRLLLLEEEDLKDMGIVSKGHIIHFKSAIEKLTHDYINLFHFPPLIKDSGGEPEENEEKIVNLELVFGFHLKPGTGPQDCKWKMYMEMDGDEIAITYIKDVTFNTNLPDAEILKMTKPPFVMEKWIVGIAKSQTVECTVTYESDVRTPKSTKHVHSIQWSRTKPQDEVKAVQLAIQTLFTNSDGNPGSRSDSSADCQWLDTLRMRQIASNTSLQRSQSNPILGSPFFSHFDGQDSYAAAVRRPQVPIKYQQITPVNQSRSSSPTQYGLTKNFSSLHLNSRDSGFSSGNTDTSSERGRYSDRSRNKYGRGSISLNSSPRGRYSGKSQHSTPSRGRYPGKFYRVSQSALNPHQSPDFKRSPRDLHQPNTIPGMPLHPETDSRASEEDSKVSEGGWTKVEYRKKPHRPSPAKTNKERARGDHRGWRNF

[13] = target: D(1A) dopamine receptor (Homo sapiens) (UniProt P21728); conditions: Compound concentration 10.0 uM
[14] = target: Serine/threonine-protein kinase N2 (Homo sapiens) (UniProt Q16513); conditions: Compound concentration 1000.0 nM
[15] = target: Receptor-interacting serine/threonine-protein kinase 4 (Homo sapiens) (UniProt P57078); conditions: Compound concentration 1000.0 nM
Receptor-interacting serine/threonine-protein kinase 4 (Homo sapiens), sequence (P57078 whole entry): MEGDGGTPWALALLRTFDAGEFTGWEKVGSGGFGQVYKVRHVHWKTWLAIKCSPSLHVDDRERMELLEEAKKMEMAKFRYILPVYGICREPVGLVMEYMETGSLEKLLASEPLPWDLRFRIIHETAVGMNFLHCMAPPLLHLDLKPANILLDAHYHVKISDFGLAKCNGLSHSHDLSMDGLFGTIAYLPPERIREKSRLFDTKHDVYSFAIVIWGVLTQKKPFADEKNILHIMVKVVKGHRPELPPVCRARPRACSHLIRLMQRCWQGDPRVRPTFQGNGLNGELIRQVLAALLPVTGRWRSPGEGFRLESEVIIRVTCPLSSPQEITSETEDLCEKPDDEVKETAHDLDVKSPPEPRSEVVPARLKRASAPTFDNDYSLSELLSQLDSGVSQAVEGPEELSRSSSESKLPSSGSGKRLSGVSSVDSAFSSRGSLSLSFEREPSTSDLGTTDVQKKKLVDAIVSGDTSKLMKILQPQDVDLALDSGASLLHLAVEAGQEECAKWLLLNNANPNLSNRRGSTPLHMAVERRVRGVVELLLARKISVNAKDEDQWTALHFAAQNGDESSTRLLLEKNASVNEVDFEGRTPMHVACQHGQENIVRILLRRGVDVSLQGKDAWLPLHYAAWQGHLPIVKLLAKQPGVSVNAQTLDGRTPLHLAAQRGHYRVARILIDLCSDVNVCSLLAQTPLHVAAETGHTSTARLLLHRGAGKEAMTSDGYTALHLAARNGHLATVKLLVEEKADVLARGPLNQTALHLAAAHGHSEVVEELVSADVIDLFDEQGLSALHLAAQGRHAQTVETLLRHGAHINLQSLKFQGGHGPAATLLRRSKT

[16] = target: Serine/threonine-protein kinase SIK2 (Homo sapiens) (UniProt Q9H0K1); conditions: Compound concentration 1000.0 nM
Serine/threonine-protein kinase SIK2 (Homo sapiens), sequence (Q9H0K1 whole entry, looked up): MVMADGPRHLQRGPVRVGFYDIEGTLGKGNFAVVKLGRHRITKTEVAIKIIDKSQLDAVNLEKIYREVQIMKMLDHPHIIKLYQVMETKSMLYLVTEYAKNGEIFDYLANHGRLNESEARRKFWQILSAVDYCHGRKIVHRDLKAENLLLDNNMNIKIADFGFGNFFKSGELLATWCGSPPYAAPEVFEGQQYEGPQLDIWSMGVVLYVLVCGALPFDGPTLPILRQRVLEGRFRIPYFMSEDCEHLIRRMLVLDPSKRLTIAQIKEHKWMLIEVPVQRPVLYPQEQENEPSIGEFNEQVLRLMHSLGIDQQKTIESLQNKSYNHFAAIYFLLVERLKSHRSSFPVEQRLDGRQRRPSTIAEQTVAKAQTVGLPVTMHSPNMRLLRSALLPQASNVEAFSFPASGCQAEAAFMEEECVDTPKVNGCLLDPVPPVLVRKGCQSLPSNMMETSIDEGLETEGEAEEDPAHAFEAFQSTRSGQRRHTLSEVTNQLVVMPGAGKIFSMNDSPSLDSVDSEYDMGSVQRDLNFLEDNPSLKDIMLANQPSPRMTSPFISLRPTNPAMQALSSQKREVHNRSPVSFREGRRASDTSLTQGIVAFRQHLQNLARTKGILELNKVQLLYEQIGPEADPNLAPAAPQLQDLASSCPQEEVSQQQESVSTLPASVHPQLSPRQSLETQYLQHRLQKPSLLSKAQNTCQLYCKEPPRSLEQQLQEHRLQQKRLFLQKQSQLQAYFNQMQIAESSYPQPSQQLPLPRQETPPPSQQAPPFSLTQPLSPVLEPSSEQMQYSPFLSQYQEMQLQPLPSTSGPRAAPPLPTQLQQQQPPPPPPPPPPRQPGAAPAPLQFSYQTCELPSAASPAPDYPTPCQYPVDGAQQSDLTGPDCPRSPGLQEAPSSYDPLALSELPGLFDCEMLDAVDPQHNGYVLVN

[17] = target: T3, Tyrosine-protein kinase ZAP-70 (Homo sapiens) (UniProt P43403); conditions: Compound concentration 1000.0 nM
T3 sequence (whole entry): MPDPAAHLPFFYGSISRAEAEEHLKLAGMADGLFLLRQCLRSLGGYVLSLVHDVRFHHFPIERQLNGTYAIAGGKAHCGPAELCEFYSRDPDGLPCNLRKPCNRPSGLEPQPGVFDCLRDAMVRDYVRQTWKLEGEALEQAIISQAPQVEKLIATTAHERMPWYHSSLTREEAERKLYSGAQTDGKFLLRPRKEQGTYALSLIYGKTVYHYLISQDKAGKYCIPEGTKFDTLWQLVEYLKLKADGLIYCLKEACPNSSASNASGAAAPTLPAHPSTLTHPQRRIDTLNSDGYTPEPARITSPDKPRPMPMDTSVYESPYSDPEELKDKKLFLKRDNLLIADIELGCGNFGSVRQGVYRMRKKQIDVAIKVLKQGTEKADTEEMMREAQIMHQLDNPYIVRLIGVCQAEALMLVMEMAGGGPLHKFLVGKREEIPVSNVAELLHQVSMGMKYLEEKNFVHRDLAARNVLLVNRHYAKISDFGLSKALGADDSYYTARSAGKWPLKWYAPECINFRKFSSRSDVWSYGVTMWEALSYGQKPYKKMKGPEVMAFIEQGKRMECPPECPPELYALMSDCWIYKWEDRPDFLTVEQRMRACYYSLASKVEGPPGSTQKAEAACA

[18] = target: Mitogen-activated protein kinase 11 (Homo sapiens) (UniProt Q15759); conditions: Compound concentration 1000.0 nM
Mitogen-activated protein kinase 11 (Homo sapiens), sequence (Q15759 whole entry): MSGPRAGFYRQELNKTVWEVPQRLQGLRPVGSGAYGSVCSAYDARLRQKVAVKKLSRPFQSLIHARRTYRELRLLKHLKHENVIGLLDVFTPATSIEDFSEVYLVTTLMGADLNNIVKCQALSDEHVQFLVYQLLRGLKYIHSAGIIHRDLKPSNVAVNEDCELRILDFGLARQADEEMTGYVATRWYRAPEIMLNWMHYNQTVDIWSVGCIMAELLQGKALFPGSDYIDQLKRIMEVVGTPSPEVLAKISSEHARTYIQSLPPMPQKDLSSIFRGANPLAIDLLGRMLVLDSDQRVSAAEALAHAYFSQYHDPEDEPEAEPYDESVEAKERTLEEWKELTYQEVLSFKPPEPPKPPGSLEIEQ

Rhodopsin kinase GRK1 (Homo sapiens), sequence (Q15835 whole entry): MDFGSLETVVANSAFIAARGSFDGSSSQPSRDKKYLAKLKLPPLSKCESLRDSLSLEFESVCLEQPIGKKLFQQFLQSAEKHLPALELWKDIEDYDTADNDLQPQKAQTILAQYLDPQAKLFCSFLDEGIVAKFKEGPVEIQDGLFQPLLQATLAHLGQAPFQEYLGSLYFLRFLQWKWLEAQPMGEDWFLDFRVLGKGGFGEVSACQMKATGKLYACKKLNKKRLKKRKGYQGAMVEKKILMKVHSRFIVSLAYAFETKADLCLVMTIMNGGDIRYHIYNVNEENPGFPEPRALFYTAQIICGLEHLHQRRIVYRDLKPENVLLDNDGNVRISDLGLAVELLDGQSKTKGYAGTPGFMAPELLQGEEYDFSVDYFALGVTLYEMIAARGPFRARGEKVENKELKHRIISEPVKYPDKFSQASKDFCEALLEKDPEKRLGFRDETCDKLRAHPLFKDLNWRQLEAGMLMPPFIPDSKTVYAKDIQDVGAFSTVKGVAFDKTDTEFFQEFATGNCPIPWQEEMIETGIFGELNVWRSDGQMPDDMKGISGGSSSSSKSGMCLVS

CN(C)C(=O)Cn1cc(-c2nc(C3(c4ccc(-c5cnc(N)nc5)cc4)CC3)no2)cn1 [BI 0153]
inactive: residual activity [1] 74% | residual activity [2] 92% | residual activity [3] 89% | residual activity [4] 98% | residual activity [5] 72% | residual activity [6] 92% | residual activity [7] 94% | residual activity [8] 100% | residual activity [9] 71% | residual activity [10] 100% | residual activity [11] 86% | residual activity [12] 92% | inhibition [13] -6.69% | residual activity [14] 77% | residual activity [15] 70% | residual activity [16] 100% | residual activity [17] 94% | residual activity [18] 86%

CN(C)C(=O)Cn1cc(-c2nc([C@@](C)(c3ccc(-c4cnc(N)nc4)cc3)C3CC3)no2)cn1 [BI 665915]
inactive: residual activity [1] 100% | residual activity [2] 90% | residual activity [3] 82% | residual activity [4] 96% | residual activity [5] 84% | residual activity [6] 94% | residual activity [7] 96% | residual activity [8] 85% | residual activity [9] 97% | residual activity [10] 100% | residual activity [11] 84% | residual activity [12] 80% | inhibition [13] 4.55% | residual activity [14] 100% | residual activity [15] 93% | residual activity [16] 93% | residual activity [17] 100% | residual activity [18] 97%

Reference: ChEMBL document CHEMBL4507276 (2021)
